Experimental findings from patent publication US20100003289A1, “Controlled Release Complex Formulation For Oral Administration of Medicine For Diabetes and Method For The Preparation Thereof” (Hanmi Pharm, Co., Ltd., priority 2004, published 2010) are described below.

The data set can be described thus: Stability of glimepiride in solution as function of pH, Test Example 5. The format is physicochemical. The arrangement: Rate constant (K): unit not given beside the values. Conditions: for Log K / Rate constant (K) / T50% (time taken for 50% disintegration of the drug, 0.693/K): room temperature. As to the method:
In order to examine the stability of glimepiride in a solution as function of pH changes, only the glimepiride rapid-release portion of the formulation of Example 13 was separated, and dissolved in each of the solutions listed in Table 17. Each of the resulting solutions was kept at room temperature and the glimepiride contents thereof were measured at predetermined times.

The mark [1] stands for this setting: pH 1.2, 1st solution of disintegrating-test in Korea pharmacopoeia.
[2] abbreviates: pH 4.0, British pharmacopoeia buffer solution (1998).
Setting [3] is: pH 6.8, 2nd solution of disintegrating-test in Korea pharmacopoeia.
[4] abbreviates: pH 7.8, phosphate buffer solution (Amaryl release solution).

Consider `CCC1=C(C)CN(C(=O)NCCc2ccc(S(=O)(=O)NC(=O)N[C@H]3CC[C@H](C)CC3)cc2)C1=O` [glimepiride], for which the “Log K” value by setting is: under setting [1], 0.186; under setting [2], −0.472; under setting [3], −0.900; under setting [4], −1.187; (pH 10.0, Meglumin 1% solution) −2.721. For the same molecule, the “Rate constant (K)” value runs as follows: under setting [1], 1.534; under setting [2], 0.337; under setting [3], 0.126; under setting [4], 0.065; (pH 10.0, Meglumin 1% solution) 0.002. Besides, the “T50% (time taken for 50% disintegration of the drug, 0.693/K)” value reads like this: under setting [1], 0.45; under setting [2], 2.06; under setting [3], 5.50; under setting [4], 10.66; (pH 10.0, Meglumin 1% solution) 346.50. Also, the “stability of glimepiride as function of the solution pH” value (solution containing meglumin, judged by lowest K value, FIG. 9) was “most stable”.
